This is an account of results in US8008291B2 (Mimetica Pty Ltd, priority 2008, dated 2011).

T1 sequence (P33032 whole entry): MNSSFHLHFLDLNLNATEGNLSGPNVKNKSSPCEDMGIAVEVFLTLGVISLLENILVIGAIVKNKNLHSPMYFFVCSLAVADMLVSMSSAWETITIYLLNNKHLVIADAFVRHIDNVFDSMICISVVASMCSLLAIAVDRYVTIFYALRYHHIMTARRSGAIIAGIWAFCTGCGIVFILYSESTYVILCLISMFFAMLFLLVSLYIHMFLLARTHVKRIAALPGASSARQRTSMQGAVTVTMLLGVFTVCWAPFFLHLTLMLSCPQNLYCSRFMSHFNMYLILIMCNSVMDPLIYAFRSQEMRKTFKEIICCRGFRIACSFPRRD

This assay addresses T1, human MC5R (hMC5R) (Homo sapiens, UniProt P33032).
T1 construct: purchased Perkin Elmer RBXMC5M400UA
Put plainly: Human MC5R radioligand binding assay (membranes, [125I] NDP-MSH displacement). The note with it: hMC5R binding; tested as trifluoroacetate or hydrochloride salts, or free bases; read-out: MC5R radioligand IC50. In a few lines:
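Displacement of [125I]NDP-MSH (radioiodinated in house, HPLC-purified) from hMC5R membranes by test compound measured after 1 hr incubation at 37° C.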
For the molecule `N=C(N)NCCC[C@@H]1N[C@H](CNC(=O)c2cnc3ccccc3c2)CCN(CC2CCCCC2)C1=O` [Compound 482, N-(((3S,5S)-1-(cyclohexylmethyl)-3-(3-guanidinopropyl)-2-oxo-1,4-diazepan-5-yl)methyl)quinoline-3-carboxamide], the IC50 is below 1000 nM.
Regarding `CC[C@H](CN1CC[C@@H](CNC(=O)c2ccc(Cl)c(Cl)c2)N[C@@H](CCN2CCC(F)(F)CC2)C1=O)c1ccccc1` [Compound 483, 3,4-dichloro-N-(((3S,5S)-3-(2-(4,4-difluoropiperidin-1-yl)ethyl)-2-oxo-1-((S)-2-phenylbutyl)-1,4-diazepan-5-yl)methyl)benzamide], the IC50 was below 100 nM.
For the molecule `CC[C@H](CN1CC[C@@H](CNC(=O)c2ccc(Cl)c(Cl)c2)N[C@@H](CCN2CCCC(F)(F)C2)C1=O)c1ccccc1` [Compound 484, 3,4-dichloro-N-(((3S,5S)-3-(2-(3,3-difluoropiperidin-1-yl)ethyl)-2-oxo-1-((S)-2-phenylbutyl)-1,4-diazepan-5-yl)methyl)benzamide], the IC50 was below 1000 nM.
To `CC[C@H](CN1CC[C@@H](CNCc2ccc(Cl)c(Cl)c2)N[C@@H](CCN2CCCCC2)C1=O)c1ccccc1` [Compound 485, (3S,5S)-5-((3,4-dichlorobenzylamino)methyl)-1-((S)-2-phenylbutyl)-3-(2-(piperidin-1-yl)ethyl)-1,4-diazepan-2-one] belongs below 100 nM; to `CCC(CN1CC[C@@H](CNC(=O)c2ccc(Cl)c(Cl)c2)N[C@@H](CCN2CCCCC2)C1=O)C1CC1` (stereo partly drawn) [Compound 486, 3,4-dichloro-N-(((3S,5S)-1-(2-cyclopropylbutyl)-2-oxo-3-(2-(piperidin-1-yl)ethyl)-1,4-diazepan-5-yl)methyl)benzamide], below 1000 nM; to `CCC(CN1CC[C@@H](CNC(=O)c2ccc3cc(Cl)ccc3c2)N[C@@H](CCN)C1=O)C1CC1` (stereo partly drawn) [Compound 487, N-(((3S,5S)-3-(2-aminoethyl)-1-(2-cyclopropylbutyl)-2-oxo-1,4-diazepan-5-yl)methyl)-6-chloro-2-naphthamide], below 1000 nM.
For the molecule `CCC(CN1CC[C@@H](CNC(=O)c2ccc3cc(Cl)ccc3c2)N[C@@H](CCN2CCCCC2)C1=O)C1CC1` (stereo partly drawn) [Compound 488, 6-chloro-N-(((3S,5S)-1-(2-cyclopropylbutyl)-2-oxo-3-(2-(piperidin-1-yl)ethyl)-1,4-diazepan-5-yl)methyl)-2-naphthamide], the IC50 is below 100 nM.
To `CC[C@H](CN1CC[C@@H](CNC(=O)c2ccc(Cl)c(Cl)c2)N[C@@H](CCN2C(=O)CCC2=O)C1=O)c1ccccc1` [Compound 489, 3,4-dichloro-N-(((3S,5S)-3-(2-(2,5-dioxopyrrolidin-1-yl)ethyl)-2-oxo-1-((S)-2-phenylbutyl)-1,4-diazepan-5-yl)methyl)benzamide] belongs below 10000 nM; to `CC[C@H](CN1CC[C@@H](CNC(=O)c2ccc3cc(Cl)ccc3c2)N[C@@H](CCCNC(N)=O)C1=O)c1ccccc1` [Compound 490, 6-chloro-N-(((3S,5S)-2-oxo-1-((S)-2-phenylbutyl)-3-(3-ureidopropyl)-1,4-diazepan-5-yl)methyl)-2-naphthamide], below 1000 nM.
To `CC[C@H](CN1CC[C@@H](CNC(=O)c2ccc(Cl)c(Cl)c2)N[C@@H](CCNC(C)C(F)(F)F)C1=O)c1ccccc1` (stereo partly drawn) [Compound 491, 3,4-dichloro-N-(((3S,5S)-2-oxo-1-((S)-2-phenylbutyl)-3-(2-(1,1,1-trifluoropropan-2-ylamino)ethyl)-1,4-diazepan-5-yl)methyl)benzamide] belongs below 1000 nM; to `CC[C@H](CN1CC[C@@H](CNC(=O)c2ccc(Cl)c(Cl)c2)N[C@@H](CCN2C(=O)CC(C)(C)C2=O)C1=O)c1ccccc1` [Compound 492, 3,4-dichloro-N-(((3S,5S)-3-(2-(3,3-dimethyl-2,5-dioxopyrrolidin-1-yl)ethyl)-2-oxo-1-((S)-2-phenylbutyl)-1,4-diazepan-5-yl)methyl)benzamide], below 10000 nM; to `CC[C@H](CN1CC[C@@H](CNC(=O)c2ccc3cc(Cl)ccc3c2)N[C@@H](CCN2CCCCCC2)C1=O)c1ccccc1` [Compound 493, N-(((3S,5S)-3-(2-(azepan-1-yl)ethyl)-2-oxo-1-((S)-2-phenylbutyl)-1,4-diazepan-5-yl)methyl)-6-chloro-2-naphthamide], below 100 nM.
In the case of `CC[C@H](CN1CC[C@@H](CNC(=O)c2ccc3cc(Cl)ccc3c2)N[C@@H](CCNC(=O)NC(C)C)C1=O)c1ccccc1` [Compound 494, 6-chloro-N-(((3S,5S)-3-(2-(3-isopropylureido)ethyl)-2-oxo-1-((S)-2-phenylbutyl)-1,4-diazepan-5-yl)methyl)-2-naphthamide] it was below 1000 nM; in that of `CC[C@H](CN1CC[C@@H](CNC(=O)c2ccc(-c3ccccc3)cc2)N[C@@H](CCN2CCCCC2)C1=O)c1ccccc1` [Compound 495, N-(((3S,5S)-2-oxo-1-((S)-2-phenylbutyl)-3-(2-(piperidin-1-yl)ethyl)-1,4-diazepan-5-yl)methyl)biphenyl-4-carboxamide], below 100 nM; in that of `CC[C@H](CN1CC[C@@H](CNC(=O)c2csc(-c3ccccc3)n2)N[C@@H](CCN2CCCCC2)C1=O)c1ccccc1` [Compound 496, N-(((3S,5S)-2-oxo-1-((S)-2-phenylbutyl)-3-(2-(piperidin-1-yl)ethyl)-1,4-diazepan-5-yl)methyl)-2-phenylthiazole-4-carboxamide], below 100 nM.
Regarding `CC[C@H](CN1CC[C@@H](CNC(=O)c2ccccc2-c2ccc(Cl)cc2)N[C@@H](CCN2CCCCC2)C1=O)c1ccccc1` [Compound 497, 4′-chloro-N-(((3S,5S)-2-oxo-1-((S)-2-phenylbutyl)-3-(2-(piperidin-1-yl)ethyl)-1,4-diazepan-5-yl)methyl)biphenyl-2-carboxamide], the IC50 is below 100 nM.
In the case of `CC[C@H](CN1CC[C@@H](CNC(=O)c2ccc3cc(Cl)ccc3c2)N[C@@H](CCN(C(C)=O)C(C)C)C1=O)c1ccccc1` [Compound 498, 6-chloro-N-(((3S,5S)-3-(2-(N-isopropylacetamido)ethyl)-2-oxo-1-((S)-2-phenylbutyl)-1,4-diazepan-5-yl)methyl)-2-naphthamide] it was below 1000 nM.
For the molecule `CC[C@H](CN1CC[C@@H](CNC(=O)c2ccc3cc(Cl)ccc3c2)N[C@@H](CNC(C)C)C1=O)c1ccccc1` [Compound 499, 6-chloro-N-(((3S,5S)-3-((isopropylamino)methyl)-2-oxo-1-((S)-2-phenylbutyl)-1,4-diazepan-5-yl)methyl)-2-naphthamide], the IC50 is below 100 nM.
In the case of `CC[C@H](CN1CC[C@@H](CNC(=O)c2ccc3cc(Cl)ccc3c2)N[C@@H](CNC(=N)N)C1=O)c1ccccc1` [Compound 500, 6-chloro-N-(((3S,5S)-3-(guanidinomethyl)-2-oxo-1-((S)-2-phenylbutyl)-1,4-diazepan-5-yl)methyl)-2-naphthamide] it was below 100 nM.
In the case of `NCC[C@@H]1N[C@H](CNC(=O)c2ccc(Cl)c(Cl)c2)CCN(Cc2ccc(Cl)cc2Cl)C1=O` [Compound 502, N-(((3S,5S)-3-(2-aminoethyl)-1-(2,4-dichlorobenzyl)-2-oxo-1,4-diazepan-5-yl)methyl)-3,4-dichlorobenzamide], the IC50 is below 1000 nM.
To `O=C(NC[C@@H]1CCN(Cc2ccc(Cl)cc2Cl)C(=O)[C@H](CCN2CCCCC2)N1)c1ccc(Cl)c(Cl)c1` [Compound 503, 3,4-dichloro-N-(((3S,5S)-1-(2,4-dichlorobenzyl)-2-oxo-3-(2-(piperidin-1-yl)ethyl)-1,4-diazepan-5-yl)methyl)benzamide] belongs below 1000 nM.
To `CS(=O)(=O)NCC[C@@H]1N[C@H](CNC(=O)c2ccc(Cl)c(Cl)c2)CCN(Cc2ccc(Cl)cc2Cl)C1=O` [Compound 504, 3,4-dichloro-N-(((3S,5S)-1-(2,4-dichlorobenzyl)-3-(2-(methylsulfonamido)ethyl)-2-oxo-1,4-diazepan-5-yl)methyl)benzamide] belongs below 10000 nM; to `Cc1ccc(S(=O)(=O)NCC[C@@H]2N[C@H](CNC(=O)c3ccc(Cl)c(Cl)c3)CCN(Cc3ccc(Cl)cc3Cl)C2=O)cc1` [Compound 505, 3,4-dichloro-N-(((3S,5S)-1-(2,4-dichlorobenzyl)-3-(2-(4-methylphenylsulfonamido)ethyl)-2-oxo-1,4-diazepan-5-yl)methyl)benzamide], below 10000 nM.
To `CC(C)[C@H](N)C(=O)NCC[C@@H]1N[C@H](CNC(=O)c2ccc(Cl)c(Cl)c2)CCN(Cc2ccc(Cl)cc2Cl)C1=O` [Compound 506, N-(((3S,5S)-3-(2-((S)-2-amino-3-methylbutanamido)ethyl)-1-(2,4-dichlorobenzyl)-2-oxo-1,4-diazepan-5-yl)methyl)-3,4-dichlorobenzamide] belongs below 10000 nM; to `NCC[C@@H]1N[C@H](CNC(=O)c2ccc3cc(Cl)ccc3c2)CCN(Cc2ccc(Cl)cc2Cl)C1=O` [Compound 507, N-(((3S,5S)-3-(2-aminoethyl)-1-(2,4-dichlorobenzyl)-2-oxo-1,4-diazepan-5-yl)methyl)-6-chloro-2-naphthamide], below 100 nM.
With `O=C(NC[C@@H]1CCN(Cc2ccc(Cl)cc2Cl)C(=O)[C@H](CCN2CCCCC2)N1)c1ccc2cc(Cl)ccc2c1` [Compound 508, 6-chloro-N-(((3S,5S)-1-(2,4-dichlorobenzyl)-2-oxo-3-(2-(piperidin-1-yl)ethyl)-1,4-diazepan-5-yl)methyl)-2-naphthamide], the IC50 is below 100 nM.
To `CCC(CN1CC[C@@H](CNC(=O)c2ccc3cc(Cl)ccc3c2)N[C@@H](CCN)C1=O)c1ccsc1` (stereo partly drawn) [Compound 509, N-(((3S,5S)-3-(2-aminoethyl)-2-oxo-1-(2-(thiophen-3-yl)butyl)-1,4-diazepan-5-yl)methyl)-6-chloro-2-naphthamide] belongs below 100 nM; to `CC[C@@H](CN1CC[C@@H](CNC(=O)c2ccc3cc(Cl)ccc3c2)N[C@@H](CCN2CCCCC2)C1=O)c1ccsc1` [Compound 510, 6-chloro-N-(((3S,5S)-2-oxo-3-(2-(piperidin-1-yl)ethyl)-1-((R)-2-(thiophen-3-yl)butyl)-1,4-diazepan-5-yl)methyl)-2-naphthamide], below 100 nM.

What is called IC50 is the concentration that inhibits the measured activity by half.
